From patent US11643438B2, “Antimicrobial peptides and methods of use” (priority 2018, dated 2023)
In brackets after ≈: the same amount, converted by molar mass. *1 amine or outer side, *2 acyl side, *3 side chain or, on linkers, in order; H or OH if unused. Where a SMILES comes first, the peptide text is derived from it. [ ]: non-standard residue; d: D form. X2 = CC[C@H](C)C[C@H](C)C[C@H](C)C[C@H](N[*:1])C(=O)[*:2]; X1 = CC[C@@H](C)[C@@H](O[*:1])C(=O)[*:2]; NMeVal(β-OH) = CN[C@H](C(=O)O)C(C)(C)O; aIle = CC[C@@H](C)[C@H](N)C(=O)O; NMeV = CN[C@H](C(=O)O)C(C)C; Sar = CNCC(=O)O

Assays:
Candida albicans 5 = test: Antifungal MIC80 assay, clinical yeast isolates
Candida albicans 8 = test: Antifungal MIC80 assay, clinical yeast isolates
Candida albicans 14 = test: Antifungal MIC80 assay, clinical yeast isolates
Candida albicans 24 = test: Antifungal MIC80 assay, clinical yeast isolates
Candida albicans 30 = test: Antifungal MIC80 assay, clinical yeast isolates
Candida glabrata 2 = test: Antifungal MIC80 assay, clinical yeast isolates
Candida glabrata 4 = test: Antifungal MIC80 assay, clinical yeast isolates
Candida glabrata 16 = test: Antifungal MIC80 assay, clinical yeast isolates
Candida glabrata 17 = test: Antifungal MIC80 assay, clinical yeast isolates
Candida parapsilosis 15 = test: Antifungal MIC80 assay, clinical yeast isolates
Candida parapsilosis 23 = test: Antifungal MIC80 assay, clinical yeast isolates
Candida parapsilosis 28 = test: Antifungal MIC80 assay, clinical yeast isolates
Candida auris 381 = test: Antifungal MIC80 assay, clinical yeast isolates
Candida auris 382 = test: Antifungal MIC80 assay, clinical yeast isolates
Candida auris 384 = test: Antifungal MIC80 assay, clinical yeast isolates
Candida auris 386 = test: Antifungal MIC80 assay, clinical yeast isolates
Candida auris 387 = test: Antifungal MIC80 assay, clinical yeast isolates
Candida auris 389 = test: Antifungal MIC80 assay, clinical yeast isolates
[1] = test system: Candida duobushaemulonii 392; test: Antifungal MIC80 assay, clinical yeast isolates
Candida haemulonii 393 = test: Antifungal MIC80 assay, clinical yeast isolates
[2] = test system: Candida duobushaemulonii 394; test: Antifungal MIC80 assay, clinical yeast isolates
[3] = test system: Saccharomyces cerevisiae 399; test: Antifungal MIC80 assay, clinical yeast isolates
[4] = test system: Saccharomyces cerevisiae 400; test: Antifungal MIC80 assay, clinical yeast isolates
[5] = test system: Candida albicans ATCC 10231; test: Antifungal MIC80/MFC assay, fungal pathogen panel; settings: ATCC10231
[6] = test system: Candida parapsilosis ATCC 22019 (Y-12969); test: Antifungal MIC80/MFC assay, fungal pathogen panel
[7] = test system: Candida tropicalis ATCC750 (Y-12699); test: Antifungal MIC80/MFC assay, fungal pathogen panel
[8] = test system: Candida krusei ATCC 6258 (Y-7179); test: Antifungal MIC80/MFC assay, fungal pathogen panel
[9] = test system: Cryptococcus neoformans H99; test: Antifungal MIC80/MFC assay, fungal pathogen panel
[10] = test system: Aspergillus fumigatus MYA 3627; test: Antifungal MIC80/MFC assay, fungal pathogen panel; settings: MYA3627
[11] = test system: Aspergillus fumigatus NRRL6113; test: Antifungal MIC80/MFC assay, fungal pathogen panel
[12] = test system: Aspergillus flavus NRRL485; test: Antifungal MIC80/MFC assay, fungal pathogen panel
[13] = test system: Aspergillus terreus 191A6; test: Antifungal MIC80/MFC assay, fungal pathogen panel
[14] = test system: Curvularia lunata NRRL6409; test: Antifungal MIC80/MFC assay, fungal pathogen panel
[15] = test system: Mucor circinelloides 235C7; test: Antifungal MIC80/MFC assay, fungal pathogen panel
Fusarium solani 243G2 = test: Antifungal MIC80/MFC assay, fungal pathogen panel
[16] = test system: Hamigera insecticola NRRL35442; test: Antifungal MIC80/MFC assay, fungal pathogen panel
[17] = Candida parapsilosis ATCC 22019 (Y-12969)
[18] = Candida tropicalis ATCC750 (Y-12699)
[19] = Candida krusei ATCC 6258 (Y-7179)
[20] = Lodderomyces parapsilosis, ATCC22019

SMILES: C[C@@H]1[C@H](O)[C@@H](C)/C=C/C=C/C=C/C=C/C=C/C=C/C=C/[C@H](O[C@@H]2O[C@H](C)[C@@H](O)[C@H](N)[C@@H]2O)C[C@@H]2O[C@](O)(C[C@@H](O)C[C@@H](O)[C@H](O)CC[C@@H](O)C[C@@H](O)CC(=O)O[C@H]1C)C[C@H](O)[C@H]2C(=O)O [AMB, amphotericin B]
- MIC80 (Candida albicans 5): 0.6 µM (≈ 0.554 µg/mL)
- MIC80 (Candida albicans 8): 0.6 µM (≈ 0.554 µg/mL)
- MIC80 (Candida albicans 14): 1.25 µM (≈ 1.16 µg/mL)
- MIC80 (Candida albicans 24): 1.25 µM (≈ 1.16 µg/mL)
- MIC80 (Candida albicans 30): 2.5 µM (≈ 2.31 µg/mL)
- MIC80 (Candida glabrata 2; Candida glabrata 2): 0.3 µM (≈ 0.277 µg/mL)
- MIC80 (Candida glabrata 4; Candida glabrata 4): 1.25 µM (≈ 1.16 µg/mL)
- MIC80 (Candida glabrata 16; Candida glabrata 16): 0.15 µM (≈ 0.139 µg/mL)
- MIC80 (Candida glabrata 17; Candida glabrata 17): 0.3 µM (≈ 0.277 µg/mL)
- MIC80 (Candida parapsilosis 15; Candida parapsilosis 15): 2.5 µM (≈ 2.31 µg/mL)
- MIC80 (Candida parapsilosis 23; Candida parapsilosis 23): 1.25 µM (≈ 1.16 µg/mL)
- MIC80 (Candida parapsilosis 28; Candida parapsilosis 28): 1.25 µM (≈ 1.16 µg/mL)
- MIC80 (Candida auris 381; Candida auris 381, multidrug-resistant): 1.25 µM (≈ 1.16 µg/mL)
- MIC80 (Candida auris 382; Candida auris 382, multidrug-resistant): 1.25 µM (≈ 1.16 µg/mL)
- MIC80 (Candida auris 384; Candida auris 384, multidrug-resistant): 2.5 µM (≈ 2.31 µg/mL)
- MIC80 (Candida auris 386; Candida auris 386, multidrug-resistant): 2.5 µM (≈ 2.31 µg/mL)
- MIC80 (Candida auris 387; Candida auris 387, multidrug-resistant): 2.5 µM (≈ 2.31 µg/mL)
- MIC80 (Candida auris 389; Candida auris 389, multidrug-resistant): 5 µM (≈ 4.62 µg/mL)
- MIC80 ([1]; Candida duobushaemulonii 392, multidrug-resistant): 5 µM (≈ 4.62 µg/mL)
- MIC80 (Candida haemulonii 393; Candida haemulonii 393, multidrug-resistant): 5 µM (≈ 4.62 µg/mL)
- MIC80 ([2]; Candida duobushaemulonii 394, multidrug-resistant): 5 µM (≈ 4.62 µg/mL)
- MIC80 ([3]; Saccharomyces cerevisiae 399, multidrug-resistant): 2.5 µM (≈ 2.31 µg/mL)
- MIC80 ([4]; Saccharomyces cerevisiae 400, multidrug-resistant): 1.25 µM (≈ 1.16 µg/mL)
- MFC [5]: 2.5 µM (≈ 2.31 µg/mL)
- MIC80 [5]: 0.6 µM (≈ 0.554 µg/mL)
- MFC [6, 17]: 5 µM (≈ 4.62 µg/mL)
- MIC80 [6, 17]: 1.25 µM (≈ 1.16 µg/mL)
- MFC [7, 18]: 2.5 µM (≈ 2.31 µg/mL)
- MIC80 [7, 18]: 1.25 µM (≈ 1.16 µg/mL)
- MFC [8, 19]: 5 µM (≈ 4.62 µg/mL)
- MIC80 [8, 19]: 2.5 µM (≈ 2.31 µg/mL)
- MFC [9]: 2.5 µM (≈ 2.31 µg/mL)
- MIC80 [9]: 1.25 µM (≈ 1.16 µg/mL)
- MFC [10]: 2.5 µM (≈ 2.31 µg/mL)
- MIC80 [10]: 2.5 µM (≈ 2.31 µg/mL)
- MFC [11]: 10 µM (≈ 9.24 µg/mL)
- MIC80 [11]: 2.5 µM (≈ 2.31 µg/mL)
- MFC [12]: 10 µM (≈ 9.24 µg/mL)
- MIC80 [12]: 5 µM (≈ 4.62 µg/mL)
- MFC [13]: 10 µM (≈ 9.24 µg/mL)
- MIC80 [13]: 2.5 µM (≈ 2.31 µg/mL)
- MFC [14]: 2.5 µM (≈ 2.31 µg/mL)
- MIC80 [14]: 0.3 µM (≈ 0.277 µg/mL)
- MFC [15]: 1.25 µM (≈ 1.16 µg/mL)
- MIC80 [15]: 1.25 µM (≈ 1.16 µg/mL)
- MFC (Fusarium solani 243G2): 1.25 µM (≈ 1.16 µg/mL)
- MIC80 (Fusarium solani 243G2): 1.25 µM (≈ 1.16 µg/mL)
- MFC [16]: 10 µM (≈ 9.24 µg/mL)
- MIC80 [16]: 2.5 µM (≈ 2.31 µg/mL)

SMILES: CC[C@H](C)C[C@H](C)C[C@H](C)C[C@@H]1NC(=O)[C@H](C(C)C)N(C)C(=O)[C@@H]([C@H](C)CC)OC(=O)[C@H](C(C)(C)O)N(C)C(=O)[C@H](CC(C)C)NC(=O)[C@H](C(C)C)N(C)C(=O)[C@H]([C@H](C)CC)NC(=O)[C@@H]2CCCN2C(=O)CN(C)C1=O [Compound 1, persephacin] (cyclo(L[NMeVal(β-OH)][X1][NMeV][X2][Sar]P[aIle][NMeV]))
- MIC80 (Candida albicans 5): 1.25 µM (≈ 1.34 µg/mL)
- MIC80 (Candida albicans 8): 0.6 µM (≈ 0.645 µg/mL)
- MIC80 (Candida albicans 14): 0.6 µM (≈ 0.645 µg/mL)
- MIC80 (Candida albicans 24): 0.6 µM (≈ 0.645 µg/mL)
- MIC80 (Candida albicans 30): 5 µM (≈ 5.38 µg/mL)
- MIC80 (Candida glabrata 2; Nakaseomyces glabratus, 2): 0.15 µM (≈ 0.161 µg/mL)
- MIC80 (Candida glabrata 4; Nakaseomyces glabratus, 4): 1.25 µM (≈ 1.34 µg/mL)
- MIC80 (Candida glabrata 16; Nakaseomyces glabratus, 16): 0.3 µM (≈ 0.323 µg/mL)
- MIC80 (Candida glabrata 17; Nakaseomyces glabratus, 17): 0.15 µM (≈ 0.161 µg/mL)
- MIC80 (Candida parapsilosis 15; Lodderomyces parapsilosis, 15): 2.5 µM (≈ 2.69 µg/mL)
- MIC80 (Candida parapsilosis 23; Lodderomyces parapsilosis, 23): 2.5 µM (≈ 2.69 µg/mL)
- MIC80 (Candida parapsilosis 28; Lodderomyces parapsilosis, 28): 2.5 µM (≈ 2.69 µg/mL)
- MIC80 (Candida auris 381; Candidozyma auris, 381): 2.5 µM (≈ 2.69 µg/mL)
- MIC80 (Candida auris 382; Candidozyma auris, 382): 2.5 µM (≈ 2.69 µg/mL)
- MIC80 (Candida auris 384; Candidozyma auris, 384): 2.5 µM (≈ 2.69 µg/mL)
- MIC80 (Candida auris 386; Candidozyma auris, 386): 2.5 µM (≈ 2.69 µg/mL)
- MIC80 (Candida auris 387; Candidozyma auris, 387): 2.5 µM (≈ 2.69 µg/mL)
- MIC80 (Candida auris 389; Candidozyma auris, 389): 2.5 µM (≈ 2.69 µg/mL)
- MIC80 ([1]; Candidozyma duobushaemuli, 392): 2.5 µM (≈ 2.69 µg/mL)
- MIC80 (Candida haemulonii 393; Candidozyma haemuli, 393): 0.3 µM (≈ 0.323 µg/mL)
- MIC80 ([2]; Candidozyma duobushaemuli, 394): 2.5 µM (≈ 2.69 µg/mL)
- MIC80 ([3]; Saccharomyces cerevisiae, 399): 2.5 µM (≈ 2.69 µg/mL)
- MIC80 ([4]; Saccharomyces cerevisiae, 400): 2.5 µM (≈ 2.69 µg/mL)
- MFC [5]: 1.25 µM (≈ 1.34 µg/mL)
- MIC80 [5]: 0.6 µM (≈ 0.645 µg/mL)
- MFC [6, 20]: 2.5 µM (≈ 2.69 µg/mL)
- MIC80 [6, 20]: 2.5 µM (≈ 2.69 µg/mL)
- MFC ([7]; Candida tropicalis, ATCC750): 2.5 µM (≈ 2.69 µg/mL)
- MIC80 ([7]; Candida tropicalis, ATCC750): 1.25 µM (≈ 1.34 µg/mL)
- MFC ([8]; Pichia kudriavzevii, ATCC6258): 2.5 µM (≈ 2.69 µg/mL)
- MIC80 ([8]; Pichia kudriavzevii, ATCC6258): 1.25 µM (≈ 1.34 µg/mL)
- MFC [9]: 2.5 µM (≈ 2.69 µg/mL)
- MIC80 [9]: 0.6 µM (≈ 0.645 µg/mL)
- MFC [10]: 5 µM (≈ 5.38 µg/mL)
- MIC80 [10]: 2.5 µM (≈ 2.69 µg/mL)
- MFC [11]: 5 µM (≈ 5.38 µg/mL)
- MIC80 [11]: 2.5 µM (≈ 2.69 µg/mL)
- MFC [12]: > 10 µM
- MIC80 [12]: 1.25 µM (≈ 1.34 µg/mL)
- MFC [13]: > 10 µM
- MIC80 [13]: 2.5 µM (≈ 2.69 µg/mL)
- MFC [14]: 0.6 µM (≈ 0.645 µg/mL)
- MIC80 [14]: 0.3 µM (≈ 0.323 µg/mL)
- MFC [15]: > 10 µM
- MIC80 [15]: > 10 µM
- MFC (Fusarium solani 243G2): 2.5 µM (≈ 2.69 µg/mL)
- MIC80 (Fusarium solani 243G2): 1.25 µM (≈ 1.34 µg/mL)
- MFC [16]: 5 µM (≈ 5.38 µg/mL)
- MIC80 [16]: 0.6 µM (≈ 0.645 µg/mL)
